Drawing on PMC8748766, “The catalytic activity of TCPTP is auto-regulated by its intrinsically disordered tail and activated by Integrin alpha-1” (Nature Communications, 2022), this text covers kcat, Km and kcat/Km for one sequence.

Type in all cases: biochemical
Test [1] concerns the target T1, TCPTP (Homo sapiens, UniProt P17706).
T1 construct: fragments of TCPTP (residues: 1–387); His6 (N, cleaved yes); made in house; host or cells: E. coli BL21 (DE3) RIL
T1 sequence (P17706 1-387 isoform P17706-2): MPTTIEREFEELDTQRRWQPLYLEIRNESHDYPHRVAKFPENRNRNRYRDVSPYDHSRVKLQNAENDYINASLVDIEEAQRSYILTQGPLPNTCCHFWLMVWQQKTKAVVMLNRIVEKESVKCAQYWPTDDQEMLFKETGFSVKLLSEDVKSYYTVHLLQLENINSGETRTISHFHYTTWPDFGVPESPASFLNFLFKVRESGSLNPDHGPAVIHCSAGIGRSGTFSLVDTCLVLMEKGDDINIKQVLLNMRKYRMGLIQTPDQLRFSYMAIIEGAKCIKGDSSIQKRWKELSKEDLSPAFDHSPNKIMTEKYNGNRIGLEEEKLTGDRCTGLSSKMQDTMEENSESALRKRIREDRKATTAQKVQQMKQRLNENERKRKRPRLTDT
Put plainly: Kinetics of TCPTP with saturating ITGA1 peptide, pEGFR peptide-1 substrate. The following applies: TCPTP saturated with ITGA1 peptide (ITGA1_TR 1 μM; ITGA1_FCT 25 μM), mean ± SE, n = 9. An excerpt:
(§1) Polymerase chain reaction (PCR) fragments of TCPTP (residues: 1–387) TCPTPCAT (catalytic domain, residues: 1–288, 1–302 or 1–314), TCPTPTail (C-terminal tail, residues: 289–387 or 303–387) were amplified from full-length human TCPTP (TC45 isoform). TCPTP, TCPTPCAT (residues: 1–288, 1–314), and TCPTPTail (residues: 289–387) fragments were cloned into pMCSG7 including a N-terminal His6-tag using ligation-independent cloning. For all NMR experiments, the PCR fragments of TCPTP, TCPTPCAT (residues: 1–302) and TCPTPTail (residue: 303–387) were sub-cloned into pRP1B as previously described.
(§2) The rate of dephosphorylation of TCPTP and TCPTPCAT (residue 1–314) against 2 phosphotyrosine peptides derived from EGFR was monitored either with or without ITGA1 peptide (ITGA1_FCT & ITGA1_TR) in assay buffer (25 mM Hepes pH 7.4, 50 mM NaCl and 1 mM DTT). Lyophilized powder of all synthetic peptides was dissolved in assay buffer without DTT (phosphopeptides, 5 mM; ITGA1 peptides, 2 mM). For the kinetic analysis, the concentration of the enzyme was fixed at 1 nM while the substrate (phosphopeptides) concentration was varied from 2.5 μM to 160 μM in a total reaction volume of 200 μl. Effect of ITGA1 peptide on TCPTP & TCPTPCAT kinetics were assessed in saturated condition by adding an excess amount of ITGA1 peptide to the reaction mixture (ITGA1_TR = 1 μM; ITGA1_FCT = 25 μM). The reaction was incubated at 30 °C for 30 min and stopped by the addition of 30 μl phosphate reagent (phosphate colorimetric assay kit; Bio Vision) following the manufacturer’s instructions. Data were normalized and fitted using a nonlinear curve, and kinetics parameters (KM and kcat) were calculated from the Michaelis-Menten equation using Graph Pad Prism 9.0. All data points in the enzyme kinetics experiment were measured in triplicate, and the experiments were repeated three times.

Test [2] concerns the target T1, TCPTP. Briefly: Kinetics of TCPTP with saturating ITGA1 peptide, pEGFR peptide-2 substrate. The following applies: TCPTP saturated with ITGA1 peptide (ITGA1_TR 1 μM; ITGA1_FCT 25 μM), mean ± SE, n = 9.
Source text: as §1, §2

The target in test [3] is T2, TCPTPCAT (Homo sapiens, UniProt P17706).
T2 construct: TCPTP and TCPTPCAT (residue 1–314) against 2 phosphotyrosine peptides derived from EGFR; His6 (N, cleaved yes); made in house; host or cells: E. coli BL21 (DE3) RIL
T2 sequence (P17706 1-314 isoform P17706-2): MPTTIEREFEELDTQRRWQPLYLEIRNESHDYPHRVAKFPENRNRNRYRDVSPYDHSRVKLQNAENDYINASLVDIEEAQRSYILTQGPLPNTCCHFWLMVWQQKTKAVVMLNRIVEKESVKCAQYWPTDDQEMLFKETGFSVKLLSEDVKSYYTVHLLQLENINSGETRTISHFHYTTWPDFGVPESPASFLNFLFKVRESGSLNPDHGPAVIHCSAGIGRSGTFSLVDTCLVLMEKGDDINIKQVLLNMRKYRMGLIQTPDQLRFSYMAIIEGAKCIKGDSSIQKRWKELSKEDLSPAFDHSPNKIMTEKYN
Put plainly: Kinetics of TCPTPCAT with saturating ITGA1 peptide, pEGFR peptide-2 substrate. As to conditions: TCPTPCAT saturated with ITGA1 peptide (ITGA1_TR 1 μM), mean ± SE, n = 9.
Source text: as §1, §2

The mark [4] stands for this setting: pEGFR peptide-2, pH 7.4, 30 °C 30 min.

Regarding “RPLKKKMEKRPLKKKMEK [ITGA1_TR, ITGA1 tandem repeat (2x ITGA1_TCT): …]”, the kcat in test [1] (pEGFR peptide-1, 1 nM enzyme, pH 7.4, 30 °C 30 min) amounted to 26.2 ± 0.6 s⁻¹; in test [2] (setting [4]) it was 34.7 ± 2.3 s⁻¹; in test [3] (setting [4]), 35.6 ± 0.6 s⁻¹. For the same sequence, the Michaelis-Menten constant (Km) in test [1] (pEGFR peptide-1, pH 7.4, 30 °C) worked out at 15.9 ± 1.3 µM; in test [2] (pEGFR peptide-2) it was 40.9 ± 6.8 µM; in test [3] (pEGFR peptide-2) it was 28.3 ± 1.3 µM. Moreover, the kcat/Km was 1.6e+06 ± 100000 M⁻¹ s⁻¹ in test [1] (pEGFR peptide-1), 0.8 ± 0.1 µM -1s-1 in test [2] (pEGFR peptide-2) and 1.2 ± 0.1 µM -1s-1 in test [3] (pEGFR peptide-2).

The kcat is the number of substrate molecules converted per active site and unit of time at saturation. The Km is the substrate concentration at which the rate is half of its maximum.
